Values after ≈ are worked out from the molar mass of the structure shown.
Columns and labels:
K. pneumoniae ATCC13883 = assay: MIC by broth microdilution, K. pneumoniae; type: cell-based, Klebsiella pneumoniae; conditions: MHB; for MIC: Klebsiella pneumoniae, ATCC13883, read-out: MIC (μg/mL) K. pneumoniae ATCC13883
Method: (§1) MIC values were evaluated following CLSI guidelines with some modifications, as referred to in previous work. Twofold dilutions 25.6–0.05 mg/mL of the tested compounds were performed in DMSO in separate 96-well microtiter U-plates (Greiner, Milan, Italy). In a different 96-well microtiter U-plate, for each well of the replicates, 49 µL of broth medium were added. Then, in each well of the plate, one microliter of each compound at variable dilution in DMSO was added. For each test, three independent experiments with three replicates each were performed. Tested reference bacterial strains (E. coli ATCC25922; S. Typhimurium ATCC14028; K. pneumoniae ATCC13883) were brought to the logarithmic phase of growth in MHB medium by incubation at 37 °C for 24 h. After incubation, bacterial suspensions were centrifuged (2000 rpm, 4 °C for 20 min), and then the pellets were resuspended in 100 mM phosphate buffer, pH 7.0, to reach a final bacterial concentration of 10^8 CFU/mL, adjusted by spectrophotometry (OD620nm ranged between 0.08–0.13). The obtained suspensions were further diluted 1:100 in broth medium to reach a bacterial concentration of 10^6 CFU/mL. Fifty µL of the bacterial suspension containing 10^6 CFU/mL were inoculated into each well within 30 min, to obtain a final concentration of 5 × 10^5 CFU/mL in a total volume of 100 µL. The final dilution range tested was 256–0.5 µg/mL. Growth and sterility controls were performed for each strain and for each tested compound. Plates were then incubated for 24 h at 37 °C in a static aerobic atmosphere. After incubation, plates were read by unaided eye with a microtiter reading mirror and then the OD of each well of the plates was measured spectrophotometrically at 620 nm. MIC values were calculated as the arithmetic mean ± standard deviation (SD) of the unaided eye reading and the inhibition of growth for each tested dilution was calculated from the OD values (mean ± SD). A quality control microorganism (E. coli ATCC 25922) was tested periodically to validate the accuracy of the procedure.

S. Typhimurium DW378 = assay: Target engagement: MIC of 12h and colistin in cysK/cysM-inactive mutant strain; type: cell-based, Salmonella enterica serovar Typhimurium; conditions: colistin alone
Method: In this regard, compound 12h has been selected because of its favorable overall properties. It has been tested at a concentration of 32 μg/mL, in order to ensure complete inactivation of both the OASS isoforms. […] The MIC assays of 12h and colistin alone on the DW378 strain have been performed and they have been compared with those obtained on the WT strain. […] But, on the other hand, the MIC value of colistin was […] lower on the mutant strain than that on the WT, a result that overlapped those achieved with the association of colistin and 12h in WT cells.
MIC values were evaluated following CLSI guidelines with some modifications, as referred to in previous work. Twofold dilutions 25.6–0.05 mg/mL of the tested compounds were performed in DMSO in separate 96-well microtiter U-plates (Greiner, Milan, Italy). In a different 96-well microtiter U-plate, for each well of the replicates, 49 µL of broth medium were added. Then, in each well of the plate, one microliter of each compound at variable dilution in DMSO was added. For each test, three independent experiments with three replicates each were performed.
Antimicrobial activity of associations between the different compounds and colistin (Sigma-Aldrich, St. Louis, MO, USA, lot n. 049M-4836 V) was tested with checkerboard assay with minor modifications, as mentioned in the previous work. For each assay, three experiments with three replicates each were assessed. For each compound tested concentration, 96-wells microtiter U-plates were prepared with twofold serial dilutions of colistin in MHB starting from the MIC value (µg/mL) for ten consecutive dilutions in 50 µL of broth. In each well of the same replicate, 1 µL of each compound in DMSO was added at a fixed concentration, 100 times higher than the final desired concentration (3.2; 1.6; 0.8 mg/mL). Subsequently, 49 µL of the bacterial suspension at a concentration of 10^6 CFU/mL, adjusted spectrophotometrically as reported above, was added to each well, reaching the final bacterial concentration of 5 × 10^5 CFU/mL. Growth and sterility controls were performed for each experiment and for each replicate. Finally, the plates were incubated at 37 °C in aerobic atmosphere for 24 h. After incubation, plates were read by unaided eye with a microtiter reading mirror and then the OD of each well of the plates was measured spectrophotometrically at 620 nm. MIC values were calculated as the arithmetic mean ± SD of the unaided eye reading and the inhibition of growth for each tested dilution was calculated from the OD values (mean ± SD).
* This strain is defective for the expression of cysK and cysM genes, encoding for isozymes OASS-A and B. The genotypes of this strain are trpC109, cysK1772, and cysM1770. […]

E. coli ATCC 25922 = assay: MIC by broth microdilution, E. coli; type: cell-based, Escherichia coli; conditions: MHB; for MIC: Escherichia coli, ATCC25922, read-out: MIC (μg/mL) E.coli ATCC 25922
Method: as §1

S. Typhimurium ATCC14028 = assay: MIC by broth microdilution, S. Typhimurium; type: cell-based, Salmonella enterica serovar Typhimurium; conditions: MHB; for MIC: Salmonella enterica, read-out: MIC (μg/mL) S. Typhimurium ATCC14028
Method: as §1

StOASS-A = biological target: T1, StOASS-A (Salmonella typhimurium, UniProt P0A1E3); assay: Fluorescence binding assay on purified recombinant StOASS-A; design: species or system S. Typhimurium; conditions: 20 °C, 100 mM HEPES, 5% DMSO, pH 7.0; racemic mixture; esters tested up to 100 μM
T1 construct: His-tag (with TEV site) (cleaved yes); made in house; host or cells: E. coli Rosetta (DE3)
Method: (§2) The affinity of the compounds for StOASS-A and StOASS-B was determined on the purified recombinant proteins by an in vitro fluorescence binding assay. Measurements were carried out at 20 °C in a 3 mm pathlength quartz microcuvette in 100 mM HEPES, 5% DMSO (Applichem, Darmstadt, Germany), pH 7.0, using a Fluoromax-4 (Horiba Jobin-Yvon, Kyoto, Japan) spectrofluorometer. Emission spectra of solutions containing 0.2–1.0 μM StOASS, upon excitation of the pyridoxal 5′-phosphate cofactor at 412 nm, in the presence of increasing concentrations of compounds were collected; fluorescence intensities at 500 nm were plotted to compound concentration and data were fitted to a binding isotherm: I=I0+ΔI·compound/KD+compound where I is the fluorescence emission intensity at 500 nm in the presence of a given concentration of compound, I0 is the initial fluorescence emission in the absence of ligands, ΔI is the amplitude of the fluorescence emission change and KD is the dissociation constant. When the KD was lower than the protein concentration, data were fitted to the quadratic equation: I=I0+ΔI·OASS+compound+KD−OASS+compound+KD^2−4·OASS·compound/2
(§3) Data were collected in duplicate.
(§4) Esters were tested up to a concentration of 100 μM and no binding was observed.

StOASS-B = biological target: T2, StOASS-B (Salmonella typhimurium, UniProt P29848); assay: Fluorescence binding assay on purified recombinant StOASS-B; conditions: 20 °C, 100 mM HEPES, 5% DMSO, pH 7.0; racemic mixture; esters tested up to 100 μM
T2 construct: His-tag (with TEV site) (cleaved yes); made in house; host or cells: E. coli Rosetta (DE3)
T2 sequence (P29848 1-303): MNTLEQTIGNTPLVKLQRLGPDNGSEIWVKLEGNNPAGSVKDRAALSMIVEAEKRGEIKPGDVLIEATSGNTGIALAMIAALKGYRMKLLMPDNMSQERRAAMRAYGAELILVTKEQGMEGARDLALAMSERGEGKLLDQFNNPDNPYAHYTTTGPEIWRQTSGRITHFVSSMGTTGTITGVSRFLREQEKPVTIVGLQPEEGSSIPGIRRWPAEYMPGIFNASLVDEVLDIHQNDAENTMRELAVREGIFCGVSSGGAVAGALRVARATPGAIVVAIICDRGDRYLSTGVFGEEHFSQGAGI
Method: as §2, §3, §4

MDBK cells = assay: Cytotoxicity assay (MTT) on MDBK cells; type: cell-based, bovine; conditions: 32, 16, 8 µg/mL; MTT test
Method: The cytotoxicity assay was performed using the 3-(4,5-dimethylthiazol-2-yl)-2,5-diphenyltetrazolium bromide (MTT) test, following the procedure used by Donofrio et al.. MDBK cells were cultured on microtiter tissue culture plates in DMEM medium for 24 h at 37 °C in the presence of 5% CO2. After incubation, when the cell monolayer was at confluence, an aliquot of 1 µL of UPAR415 in DMSO at different concentrations was added in each well, containing a volume of 100 µL of DMEM medium and MDBK cells, and then the plates were reincubated at the same conditions. After incubation, 10 µL of MTT at 200 mg/mL (3-(4,5-dimethylthiazol-2-yl)-2,5-diphenyltetrazolium bromide) was added to each well and incubated at 37 °C for 6 h. At the end of the incubation, 100 µL of the solubilization solution (10% SDS in 0.01 M HCl) was added to each well and then incubated overnight. The MTT compound, a yellow tetrazolium salt, is reduced by mitochondrial enzymes (succinate dehydrogenase) of metabolically active eukaryotic cells to insoluble formazan crystals. In the presence of metabolically active cells, after the addition of a detergent solution (10% SDS in […]) that allows the formazan to be released from the cells, a violet color is seen in the medium. Instead, in the presence of non-viable cells, MTT is not reduced to formazan and therefore the solution will remain yellow.
After incubation, plates were read with a spectrophotometer at 620 nm. Positive controls (PC)—without any compounds—and PCs with 1% DMSO were performed for each plate and three replicates for two independent experiments were performed for each assay.

T1 sequence (P0A1E3 whole entry): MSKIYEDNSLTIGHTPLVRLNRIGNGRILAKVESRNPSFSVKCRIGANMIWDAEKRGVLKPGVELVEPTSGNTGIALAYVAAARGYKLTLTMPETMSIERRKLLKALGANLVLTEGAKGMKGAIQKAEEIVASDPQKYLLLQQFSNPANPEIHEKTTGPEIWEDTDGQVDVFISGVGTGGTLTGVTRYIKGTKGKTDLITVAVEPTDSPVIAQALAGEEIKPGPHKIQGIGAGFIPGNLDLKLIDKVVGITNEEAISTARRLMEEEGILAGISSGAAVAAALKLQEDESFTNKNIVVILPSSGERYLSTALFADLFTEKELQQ

| Compound | MIC Colistin K. pneumoniae (K. pneumoniae ATCC13883; colistin alone) | MIC Colistin (S. Typhimurium DW378; DW378 mutant strain) | MIC of colistin on mutant strain DW378 relative to WT (fold lower) (S. Typhimurium DW378; DW378 versus wild type) | MIC Colistin E. coli (E. coli ATCC 25922; colistin alone) | MIC Colistin S. Typhimurium (S. Typhimurium ATCC14028; colistin alone, ATCC14028 (wild type)) | MIC (K. pneumoniae ATCC13883; compound alone, 24 h at 37 °C) | MIC (E. coli ATCC 25922; compound alone, 24 h at 37 °C) | KD (μM) OASS-A (StOASS-A) | KD (μM) OASS-B (StOASS-B) | MIC (S. Typhimurium ATCC14028; compound alone, 24 h at 37 °C) | Toxicity on viability of MDBK cells (MDBK cells) | MIC (μg/mL) K. pneumoniae ATCC13883 (K. pneumoniae ATCC13883; compound alone, 24 h at 37 °C) | MIC (μg/mL) E.coli ATCC 25922 (E. coli ATCC 25922; compound alone, 24 h at 37 °C) | MIC (μg/mL) S. Typhimurium ATCC14028 (S. Typhimurium ATCC14028; compound alone, 24 h at 37 °C) |
| --- | --- | --- | --- | --- | --- | --- | --- | --- | --- | --- | --- | --- | --- | --- |
| Colistin [reference compound] | 4.00 ± 1.73 µg/mL | 0.141 ± 0.09 µg/mL | 5 fold | 0.39 ± 0.25 µg/mL | 0.53 ± 0.19 µg/mL | – | – | – | – | – | – | – | – | – |
| CCOC(=O)[C@]1(Cc2ccc(C)cc2)C[C@H]1c1cccc(N2CCN(C)CC2)c1 (relative stereo) [Compound 20j, trans-ethyl 1-(4-methylbenzyl)-2-(3-(4-methylpiperazin-1-yl)phenyl)cyclopropanecarboxylate] | – | – | – | – | – | > 512 µg/mL | > 512 µg/mL | No binding | No binding | > 512 µg/mL | high toxicity profiles | – | – | – |
| CCOC(=O)[C@]1(Cc2ccc(C)cc2)C[C@H]1c1cccc(N2CCNCC2)c1 (relative stereo) [Compound 20i, trans-ethyl 1-(4-methylbenzyl)-2-(3-(piperazin-1-yl)phenyl)cyclopropanecarboxylate] | – | – | – | – | – | 32 µg/mL (≈ 84.5 µM) | 40 µg/mL (≈ 106 µM) | No binding | No binding | 36 µg/mL (≈ 95.1 µM) | high toxicity profiles | measurable antimicrobial activity | measurable antimicrobial activity | measurable antimicrobial activity |
| CCOC(=O)[C@]1(Cc2ccc(C)cc2)C[C@H]1c1cccc(-c2cccc(F)c2)c1 (relative stereo) [Compound 8f, trans-ethyl 2-(3′-fluoro-[1,1′-biphenyl]-3-yl)-1-(4-methylbenzyl)cyclopropanecarboxylate] | – | – | – | – | – | > 512 µg/mL | > 512 µg/mL | No binding | No binding | > 512 µg/mL | proliferative effects | – | – | – |
| CCOC(=O)[C@]1(Cc2ccc(C)cc2)C[C@H]1c1cccc(-c2cn[nH]c2)c1 (relative stereo) [Compound 8c, trans-ethyl 2-(3-(1H-pyrazol-4-yl)phenyl)-1-(4-methylbenzyl)cyclopropanecarboxylate] | – | – | – | – | – | > 512 µg/mL | > 512 µg/mL | No binding | No binding | > 512 µg/mL | high toxicity profiles | – | – | – |
| CCOC(=O)[C@]1(Cc2ccc(C)cc2)C[C@H]1c1cccc(-c2cc(O)cc(F)c2)c1 (relative stereo) [Compound 8e, trans-ethyl 2-(3′-fluoro-5′-hydroxy-[1,1′-biphenyl]-3-yl)-1-(4-methylbenzyl) cyclopropanecarboxylate] | – | – | – | – | – | > 512 µg/mL | > 512 µg/mL | No binding | No binding | > 512 µg/mL | high toxicity profiles | – | – | – |

From paper PMC9227781, “Inhibitors of O-Acetylserine Sulfhydrylase with a Cyclopropane-Carboxylic Acid Scaffold Are Effective Colistin Adjuvants in Gram Negative Bacteria” (Pharmaceuticals, 2022)
